# Laboratory results reported in patent US12559750B2, “Methods and compositions for treatment of polycystic kidney disease” (Regulus Therapeutics Inc., priority 2021, dated 2026).
# pEC50, pIC50: −log10 of the molar value.
# What was measured:
# [1] = system: C57Bl/6J male mice; assay: ICV maximum tolerated dose study, Study 1; format: in vivo, mouse; conditions: for Mortality/total number of mice: 7-day
# Experimental: Compounds (RG-NG-1017, RGLS4326, RG-NG-1001) were evaluated in a pilot maximum tolerated dose (MTD) study (discussed below). RG-NG-1017, RGLS4326 and RG-NG-1001 were initially evaluated at 4 dose-levels each. RG-NG-1017 was included for evaluation as a non-AMPA-R binding compound, as compared to RGLS4326 and RG-NG-1001, which bind AMPA-R. C57Bl/6J male mice (Jackson Laboratories), age 6-7 weeks, were used in this study. Mice were assigned randomly to treatment groups, and the study was blinded. Animals were allowed to acclimate for no less than 5 days and housed on a 12 hr light/dark cycle (lights on 7:00 AM). No more than 4 mice were house in each cage in a ventilated cage rack system. The diet consisted of standard rodent chow and water ad libitum.
# The following parameters were used for this study: • 1. Route(s) of administration: intracerebroventricular (ICV) dosing of RG-NG-1017, RG-NG-1001, RGLS4326 • 2. Dose Volume(s): 4 μL • 3. Formulation(s): vehicle, Ca^2+ and Mg^2+ free dPBS • 4. Dose Frequency: Once • 5. Study duration: 8 Days • 6. Number of Groups: 3 • 7. Number of animals per group: (2-4 each group) • 8. Total number of animals: […]
# For the ICV administration, mice were anesthetized and positioned for injections. The skin over the skull was incised, and a small hole was made in the skull above the target using a microdrill. The stereotactic coordinates were anteroposterior (AP), −0.4 mm; mediolateral (ML), +/−1.0-1.5 mm; dorsoventral (DV), −3.0 mm from the bregma for injection into both the right and left lateral cerebral ventricles (Hironaka et al, 2015). Animals were injected unilaterally with 4 μl into the right lateral cerebral ventricle. Compounds were injected over 1-2 min, and the needle was left in place for 0.5-1 min prior to withdrawal. The incision was closed with sutures, wound clips, or VetBond.
# Following ICV treatment (Day 0), animals were monitored for 7 days in which daily health checks, body weight, and mortality was recorded. On Day 7, brain and kidney were collected and fixed (10% formalin) and stored pending histology.
# [2] = target: T1, AMPA-R (GluA1/GluA4) (Homo sapiens, UniProt P42261+P48058); assay: Manual whole-cell patch clamp, ChanTest GluA1/GluA4 EZCells; format: cell-based
# T1 construct: host or cells: ChanTest GluA1/GluA4 EZCells
# T1 sequence (P42261 19-906): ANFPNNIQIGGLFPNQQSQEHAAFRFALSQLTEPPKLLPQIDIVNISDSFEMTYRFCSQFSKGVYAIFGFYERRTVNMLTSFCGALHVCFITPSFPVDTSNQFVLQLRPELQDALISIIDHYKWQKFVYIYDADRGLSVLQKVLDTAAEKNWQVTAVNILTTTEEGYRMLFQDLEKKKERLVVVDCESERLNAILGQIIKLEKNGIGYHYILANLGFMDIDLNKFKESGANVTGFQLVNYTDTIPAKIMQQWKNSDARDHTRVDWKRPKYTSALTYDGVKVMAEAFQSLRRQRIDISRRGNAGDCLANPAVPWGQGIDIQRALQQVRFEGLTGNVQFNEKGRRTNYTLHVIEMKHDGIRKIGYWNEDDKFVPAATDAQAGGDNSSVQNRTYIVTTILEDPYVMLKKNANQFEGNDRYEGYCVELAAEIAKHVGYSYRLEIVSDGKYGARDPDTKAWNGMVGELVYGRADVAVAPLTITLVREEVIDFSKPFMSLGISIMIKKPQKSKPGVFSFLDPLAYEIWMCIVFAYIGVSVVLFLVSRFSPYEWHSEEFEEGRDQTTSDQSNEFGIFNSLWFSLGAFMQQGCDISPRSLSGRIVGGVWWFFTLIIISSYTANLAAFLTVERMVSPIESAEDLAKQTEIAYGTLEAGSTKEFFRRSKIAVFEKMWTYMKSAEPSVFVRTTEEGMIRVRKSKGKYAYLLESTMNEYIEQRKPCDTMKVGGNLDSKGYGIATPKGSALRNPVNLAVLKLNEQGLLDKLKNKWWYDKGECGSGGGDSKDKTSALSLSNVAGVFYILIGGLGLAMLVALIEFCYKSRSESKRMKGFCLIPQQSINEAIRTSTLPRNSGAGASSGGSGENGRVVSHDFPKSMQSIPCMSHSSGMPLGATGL
# T1 sequence (P48058 21-902): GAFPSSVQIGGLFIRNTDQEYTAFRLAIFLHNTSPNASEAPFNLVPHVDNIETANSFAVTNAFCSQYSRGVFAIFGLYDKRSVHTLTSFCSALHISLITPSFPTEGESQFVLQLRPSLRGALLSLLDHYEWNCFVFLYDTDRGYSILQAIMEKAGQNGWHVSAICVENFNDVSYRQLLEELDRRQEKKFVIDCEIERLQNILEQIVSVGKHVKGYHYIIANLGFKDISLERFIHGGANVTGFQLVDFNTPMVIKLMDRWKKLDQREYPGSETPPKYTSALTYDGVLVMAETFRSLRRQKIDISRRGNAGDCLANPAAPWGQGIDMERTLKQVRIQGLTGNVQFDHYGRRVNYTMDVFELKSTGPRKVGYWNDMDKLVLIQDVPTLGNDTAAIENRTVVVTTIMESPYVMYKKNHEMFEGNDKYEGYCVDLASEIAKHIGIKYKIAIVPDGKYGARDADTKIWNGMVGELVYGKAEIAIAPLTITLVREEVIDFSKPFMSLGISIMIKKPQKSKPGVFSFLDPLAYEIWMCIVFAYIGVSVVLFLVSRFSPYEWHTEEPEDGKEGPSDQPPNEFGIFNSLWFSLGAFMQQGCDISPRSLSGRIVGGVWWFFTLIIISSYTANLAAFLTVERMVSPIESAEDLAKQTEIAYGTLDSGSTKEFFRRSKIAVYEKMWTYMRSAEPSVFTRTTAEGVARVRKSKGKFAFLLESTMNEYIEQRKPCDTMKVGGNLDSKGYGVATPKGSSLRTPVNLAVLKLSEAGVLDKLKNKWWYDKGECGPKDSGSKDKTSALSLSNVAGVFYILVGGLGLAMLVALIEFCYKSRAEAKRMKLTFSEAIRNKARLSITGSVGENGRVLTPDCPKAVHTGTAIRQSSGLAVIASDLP
# Experimental: To evaluate functional antagonism of anti-miR-17 oligonucleotides towards the AMPA-R, certain oligonucleotides were tested using the manual whole-cell patch clamp technique, which records membrane currents as a measure of AMPA-R activity.
# Manual whole-cell patch clamp studies were performed by Metrion Biosciences (Cambridge, UK). Whole-cell voltage clamp experiments were performed at room temperature (18-21° C.) using an EPC10 patch clamp amplifier using Patchmaster software (HEKA Elektronik). Glass patch pipettes were fabricated from borosilicate glass capillaries (Harvard Apparatus) to resistances between 1.4 and 2.5 MΩ. Membrane currents were recorded using the whole-cell patch clamp technique. ChanTest® GluA1/GluA4 EZCells were clamped at a holding potential of −80 mV and membrane currents elicited by 10 μM(S)-AMPA delivered using a VC38 perfusion system (ALA Scientific Instruments). The […] current amplitude values were measured with each application of 10 μM(S)-AMPA. The fractional change of current amplitude produced by each concentration of compound was calculated relative to the control current (pre-compound) and expressed as percentage change (% inhibition) for each cell. RGLS4326 was tested in a separate study from all other compounds in Table 6.
# [3] = system: miR-17; assay: miR-17 PD-Sig in human kidney cell lines; format: cell-based
# [4] = system: miR-17; assay: miR-17 PD-Sig in mouse kidney cell lines; format: cell-based
# Experimental: The activity of certain compounds was evaluated using a mouse miR-17 Pharmacodynamic-Signature (miR-17 PD-Sig), which consists of the expression of 18 unique miR-17 target genes normalized by six reference housekeeping genes, to provide an unbiased and comprehensive assessment of miR-17 activity. The mouse miR-17 PD-Sig score was the calculated average of the 18 genes' individual log 2 fold changes (normalized by six housekeeping genes) compared to mock transfection (Lee et al., Nat. Commun., 2019, 10, 4148).
# The PD-Sig for RGLS4326 in mIMCD3 cells (77.2, indicated by “*”) was not generated in this experiment; the value in Table 14 is that reported by Lee et al., Nat. Commun., 2019, 10, 4148. Blank cells in the table indicate that a compound was not tested in a particular cell line.
# [5] = system: miR-17; assay: microRNA polysome shift assay (miPSA) in kidney of wild type mice; format: in vivo, mouse; set-up: scale not given here; conditions: seven days later
# Experimental: In vivo potency was evaluated using the microRNA polysome shift assay (miPSA). This assay was used to determine the extent to which compounds directly engage the miR-17 target in the kidney in normal and PKD mice. The miPSA relies on the principle that active miRNAs bind to their mRNA targets in translationally active high molecular weight (HMW) polysomes, whereas the inhibited miRNAs reside in the low MW (LMW) polysomes. Treatment with anti-miR results in a shift of the microRNA from HMW polysomes to LMW polysomes. Thus, the miPSA provides a direct measurement of microRNA target engagement by a complementary anti-miR (Androsavich et al., Nucleic Acids Research, 2015, 44: e13).
# Wild type mice were administered a single dose of 0.3 mg/kg, 3 mg/kg, or 30 mg/kg. Kidney tissue was collected seven days later and subjected to the miPSA. The mean displacement score for each treatment is shown in Table 15 (PBS, n=17; RGLS4326 30 mg/kg, n=10; all other treatments, n=4-5). The tested oligonucleotides displaced miR-17 from translationally active polysome (as measured by miPSA) in normal mouse kidneys.
# [6] = target: AMPA-R; assay: [3H]AMPA radioligand binding assay on rat brain synaptic membranes;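 note: competition binding in which test compounds at rising concentrations displace [3H]AMPA from AMPA-R on rat brain synaptic membranes, with reduced bound radioligand as read-out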
# Experimental: The activity of anti-miR-17 compounds was evaluated in a radioligand binding assay which measured the binding of the [^3H] AMPA ligand to the AMPA-R present on rat brain synaptic membranes, in the presence of increasing concentrations of anti-miR-17 compound, anti-miR-17 compounds with affinity for the AMPA-R will bind to and compete with the binding of the [^3H] AMPA ligand.
# 5.0 nM of the ligand [^3H] AMPA, 1.0 mM of the non-specific ligand L-Glutamic acid, and anti-miR compound at uM concentrations were incubated with synaptic membranes prepared from Wistar rat cerebral cortex for 90 minutes.
# The compounds were tested in the radioligand binding assay described herein, to determine the ability of the anti-miR-17 compounds to and compete with the binding of the [3H] AMPA ligand.
# [7] = system: mice; conditions: in vivo
# Experimental: Each compound was tested in a single dose at 2000 mg/kg, and at escalating doses (100, 450, and 2000 mg/kg).
# [8] = system: miR-17; assay: miR-17 luciferase sensor assay in HeLa cells; format: cell-based
# Experimental: The in vitro potency of certain compounds was evaluated using a miR-17 luciferase sensor assay which uses a luciferase reporter vector for miR-17, with two fully complementary miR-17 binding sites in tandem in the 3′-UTR of the luciferase gene. HeLa cells were co-transfected with the luciferase reporter vector and an exogenous miR-17-expression vector that acted to repress the luciferase signal.
sequence,measurement,setting,value
ASGSCMAFCFUFUMUSUS [RG-NG-1017],MTD higher than that of RGLS4326,[1]; single ICV,> 40 fold
same,Mortality/total number of mice,[1]; single ICV 50 μg,0/2
same,Mortality/total number of mice,[1]; single ICV 100 μg,0/2
same,Mortality/total number of mice,[1]; single ICV 300 μg,1/2
same,Mortality/total number of mice,[1]; single ICV 600 μg,0/2
same,MTD,"[1]; single ICV, C57Bl/6J mice, predicted from the study",no established MTD
same,% Inhibition on membrane currents evoked with 10 uM (s)-AMPA (Mean ± SD),[2]; 0.3 uM compound,20.0 ± 6.3%
same,% Inhibition on membrane currents evoked with 10 uM (s)-AMPA (Mean ± SD),[2]; 3 uM compound,28.2 ± 5.5%
same,functional antagonism towards AMPA-R relative to RGLS4326,[2]; in words,reduced functional antagonism towards AMPA-R
same,pEC50,"[3]; HK-2, human, Normal",7.31
same,pEC50,"[3]; WT9-7, human, PKD",7.70
same,pEC50,"[4]; D52B5, mouse, PKD",7.13
same,pEC50,"[4]; mIMCD3, mouse, Normal",6.87
same,"miPSA Displacement Score, Mean",[5]; single dose 3 mg/kg,2.292
same,"miPSA Displacement Score, Mean",[5]; single dose 30 mg/kg,2.793
same,"miPSA Displacement Score, Mean",[5]; single dose 0.3 m/kg,2.077
same,pIC50,[6]; Experiment #2,< 4.00
same,% Inhibition @ 0.1 uM,"[6]; Experiment #2, 0.1 uM",0.2%
same,% Inhibition @ 1 uM,"[6]; Experiment #2, 1 uM",−1.3%
same,% Inhibition @ 10 uM,"[6]; Experiment #2, 10 uM",4.3%
same,% Inhibition @ 100 uM,"[6]; Experiment #2, 100 uM",8.1%
same,CNS toxicity in high-dose mouse toxicity studies,[7],no CNS-toxicity were observed
same,CNS-related findings noted,"[7]; mouse, sc, 2000 mg/kg",No
same,Log2FC (37.5 nM),[8]; 37.5 nM,2.67
same,pEC50,"[8]; HeLa cells, 18- to 24-hour transfection",7.82
